Columns and labels:
[1] = molecular target: Serine/threonine-protein kinase WNK1 (Homo sapiens) (UniProt Q9H4A3); assay: WNK1 SGC Tm panel (DSF); conditions: Compound concentration 20.0 uM
[2] = molecular target: 5-hydroxytryptamine receptor 3A (Homo sapiens) (UniProt P46098); conditions: Compound concentration 10.0 uM
[3] = molecular target: Bone morphogenetic protein receptor type-2 (Homo sapiens) (UniProt Q13873); assay: BMPR2 SGC Tm panel (DSF); conditions: Compound concentration 20.0 uM
[4] = molecular target: Casein kinase I isoform delta (Homo sapiens) (UniProt P48730); assay: CSNK1D SGC Tm panel (DSF); conditions: Compound concentration 20.0 uM
[5] = molecular target: Zinc finger and BTB domain-containing protein 14 (Homo sapiens) (UniProt O43829); conditions: SUD4, Compound concentration 1.0 uM
[6] = molecular target: Dual specificity tyrosine-phosphorylation-regulated kinase 2 (Homo sapiens) (UniProt Q92630); assay: DYRK2 SGC Tm panel (DSF); conditions: Compound concentration 20.0 uM
[7] = molecular target: T1, Zinc finger and BTB domain-containing protein 44 (Homo sapiens) (UniProt Q8NCP5); conditions: OCI-Ly1, Compound concentration 1.0 uM
T1 sequence (whole entry): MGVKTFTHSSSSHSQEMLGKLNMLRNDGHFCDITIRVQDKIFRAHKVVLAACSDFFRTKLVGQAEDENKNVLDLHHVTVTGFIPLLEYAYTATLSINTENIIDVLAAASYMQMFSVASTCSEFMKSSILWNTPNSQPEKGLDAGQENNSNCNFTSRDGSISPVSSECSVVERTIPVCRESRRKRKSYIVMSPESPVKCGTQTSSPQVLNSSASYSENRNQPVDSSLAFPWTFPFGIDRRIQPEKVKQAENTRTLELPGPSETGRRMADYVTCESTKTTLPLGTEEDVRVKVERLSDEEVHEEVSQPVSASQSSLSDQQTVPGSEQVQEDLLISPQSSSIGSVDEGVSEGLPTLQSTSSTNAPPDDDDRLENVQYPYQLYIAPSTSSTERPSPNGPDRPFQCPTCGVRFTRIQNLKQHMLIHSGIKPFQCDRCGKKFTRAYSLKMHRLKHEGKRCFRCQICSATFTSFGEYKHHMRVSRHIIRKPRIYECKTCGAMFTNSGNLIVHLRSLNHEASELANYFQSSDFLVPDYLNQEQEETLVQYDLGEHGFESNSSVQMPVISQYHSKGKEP

[8] = molecular target: D(2) dopamine receptor (Homo sapiens) (UniProt P14416); conditions: Compound concentration 10.0 uM
[9] = molecular target: Dual specificity mitogen-activated protein kinase kinase 4 (Homo sapiens) (UniProt P45985); assay: MAP2K4 SGC Tm panel (DSF); conditions: Compound concentration 20.0 uM
[10] = molecular target: Serine/threonine-protein kinase VRK1 (Homo sapiens) (UniProt Q99986); assay: VRK1 SGC Tm panel (DSF); conditions: Compound concentration 20.0 uM
[11] = molecular target: T2, Zinc finger and BTB domain-containing protein 24 (Homo sapiens) (UniProt O43167); conditions: OCI-Ly1, Compound concentration 1.0 uM
T2 sequence (whole entry): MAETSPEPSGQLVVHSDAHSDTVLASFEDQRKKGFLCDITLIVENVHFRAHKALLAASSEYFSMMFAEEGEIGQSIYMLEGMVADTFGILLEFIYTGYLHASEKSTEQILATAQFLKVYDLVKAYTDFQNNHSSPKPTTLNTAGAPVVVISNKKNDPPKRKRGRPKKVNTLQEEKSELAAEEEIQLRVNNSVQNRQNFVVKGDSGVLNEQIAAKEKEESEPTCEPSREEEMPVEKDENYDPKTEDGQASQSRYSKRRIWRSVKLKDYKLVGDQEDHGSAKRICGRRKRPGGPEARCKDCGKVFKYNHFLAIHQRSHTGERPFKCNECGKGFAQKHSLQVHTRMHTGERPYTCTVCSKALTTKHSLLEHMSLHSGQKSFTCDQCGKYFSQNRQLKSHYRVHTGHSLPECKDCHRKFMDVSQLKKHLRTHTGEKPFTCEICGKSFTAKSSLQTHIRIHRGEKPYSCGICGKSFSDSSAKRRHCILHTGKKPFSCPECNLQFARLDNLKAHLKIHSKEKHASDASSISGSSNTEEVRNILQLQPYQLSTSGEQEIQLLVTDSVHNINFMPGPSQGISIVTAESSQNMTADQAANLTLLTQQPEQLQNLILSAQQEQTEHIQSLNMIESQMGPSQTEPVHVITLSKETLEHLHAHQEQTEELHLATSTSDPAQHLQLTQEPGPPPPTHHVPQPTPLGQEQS

[12] = molecular target: Calcium/calmodulin-dependent protein kinase kinase 2 (Homo sapiens) (UniProt Q96RR4); assay: CAMKK2 SGC Tm panel (DSF); conditions: Compound concentration 20.0 uM
[13] = molecular target: Death-associated protein kinase 3 (Homo sapiens) (UniProt O43293); assay: DAPK3 SGC Tm panel (DSF); conditions: Compound concentration 20.0 uM
[14] = molecular target: STE20/SPS1-related proline-alanine-rich protein kinase (Homo sapiens) (UniProt Q9UEW8); assay: STK39 SGC Tm panel (DSF); conditions: Compound concentration 20.0 uM
[15] = molecular target: Calcium/calmodulin-dependent protein kinase type 1G (Homo sapiens) (UniProt Q96NX5); assay: CAMK1G SGC Tm panel (DSF); conditions: Compound concentration 20.0 uM
[16] = molecular target: Zinc finger and BTB domain-containing protein 7A (Homo sapiens) (UniProt O95365); conditions: SUD4, Compound concentration 1.0 uM
[17] = molecular target: T3, Zinc finger and BTB domain-containing protein 1 (Homo sapiens) (UniProt Q9Y2K1); conditions: SUD4, Compound concentration 1.0 uM
T3 sequence (whole entry): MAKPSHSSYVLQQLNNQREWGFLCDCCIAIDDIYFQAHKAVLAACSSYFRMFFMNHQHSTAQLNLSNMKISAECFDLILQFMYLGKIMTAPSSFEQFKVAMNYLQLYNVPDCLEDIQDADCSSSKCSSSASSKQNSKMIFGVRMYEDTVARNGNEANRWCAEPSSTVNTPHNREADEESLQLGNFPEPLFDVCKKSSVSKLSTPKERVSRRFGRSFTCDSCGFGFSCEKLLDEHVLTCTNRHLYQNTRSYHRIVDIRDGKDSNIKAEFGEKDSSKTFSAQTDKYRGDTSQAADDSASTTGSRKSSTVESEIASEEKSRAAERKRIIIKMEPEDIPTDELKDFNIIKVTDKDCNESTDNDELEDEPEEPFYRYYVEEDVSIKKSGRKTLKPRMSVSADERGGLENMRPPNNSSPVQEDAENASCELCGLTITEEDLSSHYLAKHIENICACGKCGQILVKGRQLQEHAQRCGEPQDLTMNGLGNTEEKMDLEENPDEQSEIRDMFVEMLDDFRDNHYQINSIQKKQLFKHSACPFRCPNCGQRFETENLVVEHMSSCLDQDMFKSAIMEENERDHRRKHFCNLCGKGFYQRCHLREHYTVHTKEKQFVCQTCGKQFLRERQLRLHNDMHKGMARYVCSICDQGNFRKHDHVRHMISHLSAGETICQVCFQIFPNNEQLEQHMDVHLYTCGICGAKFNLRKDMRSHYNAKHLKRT

[18] = molecular target: Beta-1 adrenergic receptor (Homo sapiens) (UniProt P08588); conditions: Compound concentration 10.0 uM
Beta-1 adrenergic receptor (Homo sapiens), sequence (P08588 whole entry, looked up): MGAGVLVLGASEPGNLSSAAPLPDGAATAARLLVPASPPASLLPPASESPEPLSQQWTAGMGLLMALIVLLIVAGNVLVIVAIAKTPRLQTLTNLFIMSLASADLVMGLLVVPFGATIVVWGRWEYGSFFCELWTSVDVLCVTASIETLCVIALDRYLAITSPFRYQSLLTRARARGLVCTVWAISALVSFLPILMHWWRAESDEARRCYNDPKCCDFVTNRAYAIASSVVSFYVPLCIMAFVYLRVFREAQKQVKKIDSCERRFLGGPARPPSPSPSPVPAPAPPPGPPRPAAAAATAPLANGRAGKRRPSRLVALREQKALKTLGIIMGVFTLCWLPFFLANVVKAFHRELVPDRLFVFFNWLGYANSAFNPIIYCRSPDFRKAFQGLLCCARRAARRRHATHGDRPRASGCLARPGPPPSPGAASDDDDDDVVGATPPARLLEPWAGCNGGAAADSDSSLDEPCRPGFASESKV

Dual specificity mitogen-activated protein kinase kinase 4 (Homo sapiens), sequence (P45985 whole entry): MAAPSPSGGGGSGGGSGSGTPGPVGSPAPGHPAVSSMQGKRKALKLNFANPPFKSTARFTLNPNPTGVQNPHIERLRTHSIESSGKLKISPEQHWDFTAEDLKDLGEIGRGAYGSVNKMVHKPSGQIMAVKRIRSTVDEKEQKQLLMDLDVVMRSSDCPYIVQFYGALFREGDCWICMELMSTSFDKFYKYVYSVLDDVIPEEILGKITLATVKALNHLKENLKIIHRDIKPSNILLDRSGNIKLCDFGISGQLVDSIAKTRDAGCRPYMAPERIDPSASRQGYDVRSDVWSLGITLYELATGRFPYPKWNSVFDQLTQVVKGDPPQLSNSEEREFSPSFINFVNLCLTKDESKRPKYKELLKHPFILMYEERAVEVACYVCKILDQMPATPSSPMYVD
Bone morphogenetic protein receptor type-2 (Homo sapiens), sequence (Q13873 whole entry, canonical isoform): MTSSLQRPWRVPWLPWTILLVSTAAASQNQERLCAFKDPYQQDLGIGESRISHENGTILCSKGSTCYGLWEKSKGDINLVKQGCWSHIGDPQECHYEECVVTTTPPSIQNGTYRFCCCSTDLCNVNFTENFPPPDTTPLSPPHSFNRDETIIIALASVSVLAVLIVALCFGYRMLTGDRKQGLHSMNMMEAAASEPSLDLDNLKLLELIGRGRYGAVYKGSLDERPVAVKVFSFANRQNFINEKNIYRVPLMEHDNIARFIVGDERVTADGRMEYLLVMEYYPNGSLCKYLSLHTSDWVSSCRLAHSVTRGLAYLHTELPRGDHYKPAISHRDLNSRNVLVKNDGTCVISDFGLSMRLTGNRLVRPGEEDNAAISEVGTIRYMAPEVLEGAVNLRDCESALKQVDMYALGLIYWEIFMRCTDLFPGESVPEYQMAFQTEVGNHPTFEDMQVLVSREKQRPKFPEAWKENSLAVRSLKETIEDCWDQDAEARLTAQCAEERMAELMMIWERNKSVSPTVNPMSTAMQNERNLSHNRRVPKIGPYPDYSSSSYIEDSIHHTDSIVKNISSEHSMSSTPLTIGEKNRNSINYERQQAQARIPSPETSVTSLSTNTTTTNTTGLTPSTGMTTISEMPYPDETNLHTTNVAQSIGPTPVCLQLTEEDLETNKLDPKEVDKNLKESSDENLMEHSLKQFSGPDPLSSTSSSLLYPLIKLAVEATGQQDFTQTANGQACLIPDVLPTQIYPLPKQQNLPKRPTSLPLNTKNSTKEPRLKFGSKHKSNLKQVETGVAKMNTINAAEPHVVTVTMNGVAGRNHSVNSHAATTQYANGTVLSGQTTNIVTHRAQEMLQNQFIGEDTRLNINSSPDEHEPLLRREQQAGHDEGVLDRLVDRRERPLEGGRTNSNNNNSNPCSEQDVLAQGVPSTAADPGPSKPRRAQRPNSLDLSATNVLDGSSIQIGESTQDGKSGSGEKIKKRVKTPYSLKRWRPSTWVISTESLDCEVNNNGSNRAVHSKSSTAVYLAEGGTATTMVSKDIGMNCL
Zinc finger and BTB domain-containing protein 7A (Homo sapiens), sequence (O95365 whole entry, the tested form may be a part): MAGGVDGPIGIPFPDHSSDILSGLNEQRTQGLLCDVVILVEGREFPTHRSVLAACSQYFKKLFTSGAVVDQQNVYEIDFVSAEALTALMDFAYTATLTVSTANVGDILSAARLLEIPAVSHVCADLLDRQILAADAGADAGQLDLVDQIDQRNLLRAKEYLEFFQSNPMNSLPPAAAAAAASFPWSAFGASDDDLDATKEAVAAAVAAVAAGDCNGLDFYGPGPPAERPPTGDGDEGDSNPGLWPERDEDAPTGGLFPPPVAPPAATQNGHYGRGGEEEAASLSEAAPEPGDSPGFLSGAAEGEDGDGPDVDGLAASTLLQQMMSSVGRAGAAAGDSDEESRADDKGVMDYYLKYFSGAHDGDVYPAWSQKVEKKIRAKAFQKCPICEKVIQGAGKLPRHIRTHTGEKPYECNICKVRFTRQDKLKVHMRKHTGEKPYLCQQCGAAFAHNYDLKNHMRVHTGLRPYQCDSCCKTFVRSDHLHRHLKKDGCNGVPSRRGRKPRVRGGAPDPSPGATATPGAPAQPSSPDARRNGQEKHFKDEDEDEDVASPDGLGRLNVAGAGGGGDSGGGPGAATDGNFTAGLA
Calcium/calmodulin-dependent protein kinase kinase 2 (Homo sapiens), sequence (Q96RR4 2-588 limits assumed): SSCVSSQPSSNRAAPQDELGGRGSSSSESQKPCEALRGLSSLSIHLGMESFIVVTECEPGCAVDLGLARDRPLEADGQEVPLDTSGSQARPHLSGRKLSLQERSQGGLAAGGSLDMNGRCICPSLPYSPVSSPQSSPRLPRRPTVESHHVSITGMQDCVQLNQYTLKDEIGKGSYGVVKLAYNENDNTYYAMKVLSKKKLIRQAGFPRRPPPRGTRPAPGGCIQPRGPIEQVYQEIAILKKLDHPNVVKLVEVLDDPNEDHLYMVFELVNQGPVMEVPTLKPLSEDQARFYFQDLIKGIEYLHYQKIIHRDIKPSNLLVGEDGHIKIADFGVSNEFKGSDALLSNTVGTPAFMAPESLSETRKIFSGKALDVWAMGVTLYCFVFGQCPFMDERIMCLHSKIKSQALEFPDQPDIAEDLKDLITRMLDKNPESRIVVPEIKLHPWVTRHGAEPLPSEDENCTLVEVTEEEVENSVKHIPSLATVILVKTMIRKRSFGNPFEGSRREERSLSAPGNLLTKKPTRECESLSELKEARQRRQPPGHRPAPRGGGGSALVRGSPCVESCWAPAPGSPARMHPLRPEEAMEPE
Casein kinase I isoform delta (Homo sapiens), sequence (P48730 whole entry, looked up, the tested form may be a part, canonical isoform): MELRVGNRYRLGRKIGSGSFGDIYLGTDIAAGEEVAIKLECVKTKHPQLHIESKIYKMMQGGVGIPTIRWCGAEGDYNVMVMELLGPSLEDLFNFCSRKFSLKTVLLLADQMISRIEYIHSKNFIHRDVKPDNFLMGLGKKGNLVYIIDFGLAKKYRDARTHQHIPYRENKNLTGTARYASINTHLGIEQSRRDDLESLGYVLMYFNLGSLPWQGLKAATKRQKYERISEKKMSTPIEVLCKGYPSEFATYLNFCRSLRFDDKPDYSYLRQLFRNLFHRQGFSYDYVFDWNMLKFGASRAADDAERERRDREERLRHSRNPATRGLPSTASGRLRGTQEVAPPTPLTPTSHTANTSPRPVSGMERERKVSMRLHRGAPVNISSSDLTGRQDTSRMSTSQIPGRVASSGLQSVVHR
Death-associated protein kinase 3 (Homo sapiens), sequence (O43293 whole entry, looked up): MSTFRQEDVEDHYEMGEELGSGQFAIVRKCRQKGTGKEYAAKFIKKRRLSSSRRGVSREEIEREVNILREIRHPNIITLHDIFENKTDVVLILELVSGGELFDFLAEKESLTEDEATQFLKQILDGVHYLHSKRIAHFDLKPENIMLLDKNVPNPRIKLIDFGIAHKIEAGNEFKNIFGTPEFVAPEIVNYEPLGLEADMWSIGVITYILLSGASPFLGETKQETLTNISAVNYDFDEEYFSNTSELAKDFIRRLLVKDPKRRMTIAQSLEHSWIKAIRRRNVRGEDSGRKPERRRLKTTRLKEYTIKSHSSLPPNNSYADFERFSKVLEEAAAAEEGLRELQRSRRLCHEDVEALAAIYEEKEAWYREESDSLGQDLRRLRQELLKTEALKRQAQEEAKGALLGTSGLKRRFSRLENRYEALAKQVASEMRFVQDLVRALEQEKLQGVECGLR
Serine/threonine-protein kinase VRK1 (Homo sapiens), sequence (Q99986 whole entry, the tested form may be a part): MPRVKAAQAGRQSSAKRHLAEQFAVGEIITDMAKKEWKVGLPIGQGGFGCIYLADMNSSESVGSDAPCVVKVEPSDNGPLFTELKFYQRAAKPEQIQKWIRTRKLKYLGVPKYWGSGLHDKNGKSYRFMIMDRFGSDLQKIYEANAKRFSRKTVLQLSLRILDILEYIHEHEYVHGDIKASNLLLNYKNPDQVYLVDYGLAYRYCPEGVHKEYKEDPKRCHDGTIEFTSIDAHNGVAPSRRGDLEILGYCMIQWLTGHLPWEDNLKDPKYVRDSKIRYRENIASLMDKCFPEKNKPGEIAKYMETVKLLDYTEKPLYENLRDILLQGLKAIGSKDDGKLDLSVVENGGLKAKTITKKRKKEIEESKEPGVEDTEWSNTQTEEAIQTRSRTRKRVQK
Zinc finger and BTB domain-containing protein 14 (Homo sapiens), sequence (O43829 whole entry, the tested form may be a part): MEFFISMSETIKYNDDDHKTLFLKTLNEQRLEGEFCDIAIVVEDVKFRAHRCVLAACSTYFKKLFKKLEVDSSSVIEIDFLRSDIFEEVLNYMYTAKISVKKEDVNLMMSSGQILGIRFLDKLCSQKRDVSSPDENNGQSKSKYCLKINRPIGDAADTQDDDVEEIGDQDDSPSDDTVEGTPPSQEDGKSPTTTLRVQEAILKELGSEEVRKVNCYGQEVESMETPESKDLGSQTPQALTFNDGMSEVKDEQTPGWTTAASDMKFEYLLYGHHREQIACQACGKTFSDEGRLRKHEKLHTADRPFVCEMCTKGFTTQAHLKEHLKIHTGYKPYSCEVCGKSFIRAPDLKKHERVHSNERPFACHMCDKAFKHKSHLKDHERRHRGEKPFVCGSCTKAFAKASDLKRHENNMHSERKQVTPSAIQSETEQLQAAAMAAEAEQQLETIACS

C[C@@H]1CN(c2ncc(Cl)c(Nc3ccc4c(c3)n(CCC(C)(C)O)c(=O)n4C)n2)C[C@H](C)C1(F)F
inactive: Tm [1] 51 °C | inhibition [2] -5.81% | Tm [3] 51 °C | Tm [4] 52 °C | LogFC [5] 0.0827 | Tm [6] 46 °C | LogFC [7] 0.423 | inhibition [8] 20.8% | Tm [9] 41 °C | Tm [10] 46 °C | LogFC [11] -0.111 | Tm [12] 38 °C | Tm [13] 39 °C | Tm [14] 37 °C | Tm [15] 44 °C | LogFC [16] -0.0678 | LogFC [17] 0.0235 | inhibition [18] -2.67%
